US20140336141A1, “MAO-B INHIBITORS DERIVED FROM THE ONE-CARBON CYCLE” (RANDOX LABORATORIES LTD., priority 2011, published 2014)

Key:
Mao-B [1] = experiment: Mao-B protein levels by Western blot in differentiated SH-SY5Y cells; assay type: cell-based; conditions: for Densitometric quantification Exp. 1 / Densitometric quantification Exp. 2 / Densitometric quantification Exp. 3: Mao-B Western blot band signal, Aza 625 nM, SAM 25 μM, Vit B6 5 μg/ml, Vit B12 7.5 μg/ml; for Densitometric quantification Exp. 1 / Densitometric quantification Exp. 2 / Densitometric quantification Exp. 3 / % MAO-B of untreated cells Exp. 1 / % MAO-B of untreated cells Exp. 2 / % MAO-B of untreated cells Exp. 3: differentiated SH-SY5Y cells treated Days 8 to 12; for % MAO-B of untreated cells Exp. 1 / % MAO-B of untreated cells Exp. 2 / % MAO-B of untreated cells Exp. 3: untreated set 100%; for % MAO-B of untreated cells Average: differentiated SH-SY5Y cells, average of the experiments
Protocol: The neuroblastoma cell line SH-SY5Y was seeded at 110,000 cell/6-well. Neuronal differentiation treatment was started on the next day (=Day 0) by addition of 10 μM retinoic acid every second day until Day 6. On Day 8 differentiation treatment was switched to 4 μM uridine (Ur), 5 μM 5-fluoro-2′-deoxyuridine FdUr), and 1 μM cytosine beta-D-arabinofuranoside (araC). During mitotic inhibitor addition (=Days 8 to 12) cells were left untreated or treated with 625 nM 5-aza-2′-deoxycytidine (Aza), 25 μM S-adenosylmethionine (SAM), 5 μg/ml vitamin B6 (Vit B6), 7.5 μg/ml vitamin B12 (Vit B12), or 5 μg/ml vitamin B6/7.5 μg/ml vitamin B12. On Day 12 cells were harvested. Cells were washed twice with chilled PBS, scraped off in PBS/protease inhibitors, and centrifuged at 15000×g at 4 C for 10 min. The pellet was reconstituted in 150 μl PBS/protease inhibitors and precipitated with 50 μl trichloroacetic acid/80 mMDTT for 1 hour at 4 C. After centrifugation at 15000×g at 4 C for 10 min, precipitated protein was washed four times with 0.6 ml acetone/20 mM DTT and stored at −80 C until analysis. The dried total protein pellet was reconstituted in 7M urea/2M thiourea/4% CHAPS buffer and the protein concentration was determined using the Coomassie Plus (Bradford) Protein Assay (Pierce, Thermo Scientific). Equal protein amounts were loaded onto an 11% SDS polyacrylamide gel and proteins were blotted onto nitrocellulose. Mao-B was detected using a polyclonal Goat anti-Mao-B antibody (sc18401, Santa Cruz) and DyLight 649 AffiniPureF(ab′)2 Fragment Donkey Anti-Goat IgGgamma (Jackson ImmunoResearch Laboratories, Inc.), and a Typhoon scanner (GE Healthcare Life Sciences). Results were analysed with the software ImageJ. The signals of the Mao-B bands of SAM treated and untreated differentiated SH-SY5Y cells were compared and the latter was set 100%.

platelet MAO activity = conditions: LOAD patients, vitamin B12 therapy; cited from earlier work
Mao-B [2] = experiment: MAO-B protein expression by Western blot in HepG2 cells, normalised against GAPDH and 14-3-3 gamma; assay type: cell-based; conditions: 10 μM 5-aza-2-deoxycytidine for 1, 2, or 3 days; FIG. 3
Protocol: HepG2 cells were grown in DMEM low glucose/10% FBS and were treated with 10 μM 5-aza-2-deoxycytidine for 1, 2, or 3 days. Untreated HepG2 cells served as controls. Cells were scraped in precipitation buffer (PBS/25% trichloroacetic acid/20 mM DTT/protease inhibitors) at 4 C and proteins were precipitated for 1 hour at 4 C. Precipitated proteins were pelleted at 15000 rpm for 10 min (4 C) and washed 4 times with 700 μl acetone/20 mM DTT. Before analysis by SDS PAGE and Western blot, the precipitated samples were reconstituted in DIGE buffer/1% pH 4-7 ampholyte. Six parallel experiments were performed. […] Two normalisation compounds were used: GAPDH (glyceraldehyde 3-phosphate dehydrogenase) and 14-3-3 gamma (protein kinase C inhibitor protein 1). Each Mao-B band signal was divided by the respective GAPDH or 14-3-3 gamma band signal to achieve normalisation.
HepG2 cells were grown in DMEM low glucose/2% FBS and were treated with vitamin B6 (300 μg/ml) and vitamin B12 (74.4 μg/ml) for 1, 3, 4, 5 and 7 days. Untreated HepG2 cells served as controls. Cells were harvested and analysed by Western blot.

Compound	Densitometric quantification Exp. 1 (Mao-B [1])	Densitometric quantification Exp. 2 (Mao-B [1])	Densitometric quantification Exp. 3 (Mao-B [1])	% MAO-B of untreated cells Exp. 1 (Mao-B [1])	% MAO-B of untreated cells Exp. 2 (Mao-B [1])	% MAO-B of untreated cells Exp. 3 (Mao-B [1])	% MAO-B of untreated cells Average (Mao-B [1])	platelet MAO activity (platelet MAO activity)	MAO-B protein expression in HepG2 cells (Mao-B [2])
vitamin B12 [Vit B12]	3823.5	857.8	695.3	93%	77%	62%	77%	significantly reduced	–
Nc1ncn([C@H]2C[C@H](O)[C@@H](CO)O2)c(=O)n1 [Aza, 5-aza-2′-deoxycytidine]	–	1116.9	973.5	–	100%	87%	94%	–	increased levels of MAO-B are expressed
C[S+](CC[C@H](N)C(=O)O)C[C@H]1O[C@@H](n2cnc3c(N)ncnc32)[C@H](O)[C@@H]1O (stereo partly shown) [SAM, S-adenosylmethionine]	2482.6	990.4	1006.8	60%	89%	90%	80%	–	–
vitamin B6 [Vit B6]	4087.1	1008.1	1004.8	99%	90%	90%	93%	–	–
